Assay results published in US11647752B2 (priority 2020, dated 2023).
Several values for one entry are separate records, joined by “and”; a condition that tells them apart may be missing. Equal values may be shown once. Read-outs that look alike come from different tables or passages of the source.

What was measured:
[1] = tested on: Ralstonia solanacearum in tobacco roots; format: in vivo; conditions: for Amount of Ralstonia solanacearum in the roots: 12 h of inoculation
[2] = tested on: Ralstonia solanacearum (pathogen HF-1-1); format: cell-based; conditions: NaHS 0, 200, 400, 600, 800 mg/L in liquid culture, 12 h, 37° C.
[3] = tested on: Ralstonia solanacearum (tobacco bacterial wilt pathogen HF-1-1); format: cell-based; conditions: 50 μL per hole, 37° C., 12 h

Row | SMILES | Amount of Ralstonia solanacearum in the roots ([1]; N- (10 mL 0.8 mmol hydroxylamine)) | Biomass of the pathogen HF-1-1 (OD600) [2] | Amount of Ralstonia solanacearum in the roots ([1]; N200 (NaHS 200 mg/L)) | Content of Ralstonia solanacearum in the tobacco roots compared with CK and N- groups ([1]; N200-N800 (NaHS 200-800 mg/L), 24 h and 36 h) | Amount of Ralstonia solanacearum in the roots ([1]; N400 (NaHS 400 mg/L)) | Amount of Ralstonia solanacearum in the roots ([1]; N600 (NaHS 600 mg/L)) | Amount of Ralstonia solanacearum in the roots ([1]; N800 (NaHS 800 mg/L)) | Decrease of number of Ralstonia solanacearum colonized on tobacco roots compared with control group ([1]; NaHS 800 mg/L, 36 hours) [%] | Diameter of inhibition zone ([3]; NaHS 200 mg/L) | Diameter of inhibition zone ([3]; NaHS 400 mg/L) | Diameter of inhibition zone ([3]; NaHS 600 mg/L) | Diameter of inhibition zone ([3]; NaHS 800 mg/L)
1 | NO [H2S inhibitor, hydroxylamine, reference compound] | 1.38 ×10^4 CFU/g | – | – | – | – | – | – | – | – | – | – | –
2 | [Na+].[SH-] [NaHS] | – | decreased with the increase of its concentration | 1.36 ×10^4 CFU/g | relatively lower | 1.39 ×10^4 CFU/g | 1.40 ×10^4 CFU/g | 1.37 ×10^4 CFU/g | 98.32 | 11.20±0.72 mm and 11.20 mm | 14.61±0.93 mm and 14.61 mm | 19.43±0.41 mm and 19.43 mm | 21.21±1.22 mm and 21.21 mm
